Results taken from PubChem BioAssay AID328 (DTP/NCI, 2004).
“And” between values parts separate entries of the source, which are not always exact repeats. Identical values can stand only once. Inconclusive results and toxic doses are left out. Rule for the calls: active = survival T/C of 150% or more; inactive = T/C below 125% in these data.

System: BDF1 mice, P388 leukemia ip, median survival T/C
Test: NCI In Vivo Anticancer Drug Screen. Data for tumor model P388 Leukemia (intraperitoneal) in B6D2F1 (BDF1) mice
Conditions: endpoint: median survival time, higher = longer survival
Outline: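 Read-out is survival of treated animals expressed relative to the vehicle group, as a T/C ratio.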

[1] = dose: 50.0 mg/kg/injection, schedule: Q04DX003 (ip), vehicle: saline
[2] = dose: 100.0 mg/kg/injection, schedule: Q01DX009 (ip), vehicle: saline
[3] = dose: 100.0 mg/kg/injection, schedule: Q04DX003 (ip), vehicle: saline
[4] = dose: 200.0 mg/kg/injection, schedule: Q01DX009 (ip), vehicle: saline
[5] = dose: 200.0 mg/kg/injection, schedule: Q04DX003 (ip), vehicle: saline
[6] = dose: 400.0 mg/kg/injection, schedule: Q04DX003 (ip), vehicle: saline
[7] = dose: 50.0 mg/kg/injection, schedule: Q01DX009 (ip), vehicle: Klucel (hydroxypropylcellulose) (HPC)
[8] = dose: 100.0 mg/kg/injection, schedule: Q01DX009 (ip), vehicle: Klucel (hydroxypropylcellulose) (HPC)
[9] = dose: 100.0 mg/kg/injection, schedule: Q04DX003 (ip), vehicle: Klucel (hydroxypropylcellulose) (HPC)
[10] = dose: 200.0 mg/kg/injection, schedule: Q01DX009 (ip), vehicle: Klucel (hydroxypropylcellulose) (HPC)
[11] = dose: 200.0 mg/kg/injection, schedule: Q04DX003 (ip), vehicle: Klucel (hydroxypropylcellulose) (HPC)
[12] = dose: 50.0 mg/kg/injection, schedule: Q01DX009 (ip), vehicle: saline with Tween-80
[13] = dose: 100.0 mg/kg/injection, schedule: Q01DX001 (ip), vehicle: saline with Tween-80
[14] = dose: 200.0 mg/kg/injection, schedule: Q01DX001 (ip), vehicle: saline with Tween-80
[15] = dose: 400.0 mg/kg/injection, schedule: Q01DX001 (ip), vehicle: saline with Tween-80
[16] = dose: 100.0 mg/kg/injection, schedule: Q04DX003 (ip), vehicle: saline with Tween-80
[17] = dose: 200.0 mg/kg/injection, schedule: Q04DX003 (ip), vehicle: saline with Tween-80
[18] = dose: 100.0 mg/kg/injection, schedule: Q04DX003 (ip), vehicle: gum acacia
[19] = dose: 200.0 mg/kg/injection, schedule: Q04DX003 (ip), vehicle: gum acacia
[20] = dose: 400.0 mg/kg/injection, schedule: Q04DX003 (ip), vehicle: gum acacia
[21] = dose: 400.0 mg/kg/injection, schedule: Q04DX003 (ip), vehicle: saline with Tween-80
[22] = dose: 100.0 mg/kg/injection, schedule: Q01DX009 (ip), vehicle: saline with Tween-80
[23] = dose: 200.0 mg/kg/injection, schedule: Q01DX009 (ip), vehicle: saline with Tween-80

Measured: T/C

CCC(=N\NC(=S)NCCN(C)C)/C(C)=N/NC(=S)NCCN(C)C
inactive: dose: 0.75 mg/kg/injection, schedule: Q04DX003 (ip), vehicle: saline 103 % of control | dose: 1.5 mg/kg/injection, schedule: Q04DX003 (ip), vehicle: saline 103 % of control | dose: 3.0 mg/kg/injection, schedule: Q04DX003 (ip), vehicle: saline 97 % of control

COc1ccc(/C=C/C(=O)c2ccc(OC)c(OC)c2)cc1O
inactive: dose: 25.0 mg/kg/injection, schedule: Q01DX009 (ip), vehicle: saline 108 % of control | dose: 50.0 mg/kg/injection, schedule: Q01DX009 (ip), vehicle: saline 101 % of control | [1] 107 % of control | [2] 106 % of control | [3] 110 % of control | [4] 90 % of control | [5] 107 % of control | dose: 400.0 mg/kg/injection, schedule: Q01DX009 (ip), vehicle: saline 99 % of control | [6] 124 % of control

CC(C)c1ccc(C(=O)C2CC2)cc1
inactive: dose: 25.0 mg/kg/injection, schedule: Q04DX003 (ip), vehicle: Klucel (hydroxypropylcellulose) (HPC) 100 % of control | [7] 100 % of control | dose: 50.0 mg/kg/injection, schedule: Q04DX003 (ip), vehicle: Klucel (hydroxypropylcellulose) (HPC) 87 % of control | [8] 113 % of control | [9] 100 % of control | [10] 113 % of control | [11] 95 % of control

[NH-]CC[S-].[NH-]CC[S-].[NH-]CC[S-].[NH-]CC[S-].[Ni+2].[Ni+2].[Ni]
inactive: dose: 2.0 mg/kg/injection, schedule: Q01DX009 (ip), vehicle: saline 105 % of control | dose: 3.12 mg/kg/injection, schedule: Q04DX003 (ip), vehicle: saline 100 % of control | dose: 4.0 mg/kg/injection, schedule: Q01DX009 (ip), vehicle: saline 100 % of control | dose: 8.0 mg/kg/injection, schedule: Q01DX009 (ip), vehicle: saline 98 % of control | dose: 16.0 mg/kg/injection, schedule: Q01DX009 (ip), vehicle: saline 87 % of control and 117 % of control

COC(=O)C(F)C(Br)C(=O)OC (stereo not drawn)
inactive: dose: 25.0 mg/kg/injection, schedule: Q01DX009 (ip), vehicle: saline with Tween-80 113 % of control | [12] 115 % of control

NC(=O)c1nnc2cccc(Cl)n12
inactive: [13] 112 % of control | [14] 103 % of control | [15] 96 % of control

CS(=O)(=O)OCCN(CCOS(C)(=O)=O)c1ccc(C=Nc2ccc3oc(=O)ccc3c2)cc1
active: [16] 212 % of control | dose: 132.0 mg/kg/injection, schedule: Q04DX003 (ip), vehicle: saline with Tween-80 165 % of control | [17] 243 % of control

O=C1c2c(Cl)cccc2C(O)(c2ccccc2)c2cccc(Cl)c21
inactive: dose: 50.0 mg/kg/injection, schedule: Q01DX009 (ip), vehicle: other 100 % of control | dose: 100.0 mg/kg/injection, schedule: Q01DX009 (ip), vehicle: other 92 % of control | dose: 200.0 mg/kg/injection, schedule: Q01DX009 (ip), vehicle: other 105 % of control

Cc1ccc(C)c(N2CCN(c3ccncc3N)CC2)c1
inactive: dose: 37.5 mg/kg/injection, schedule: Q04DX003 (ip), vehicle: saline with Tween-80 113 % of control | dose: 75.0 mg/kg/injection, schedule: Q04DX003 (ip), vehicle: saline with Tween-80 122 % of control | dose: 150.0 mg/kg/injection, schedule: Q04DX003 (ip), vehicle: saline with Tween-80 118 % of control

O=S(=O)(Nc1ccccc1Cl)c1ccccc1
inactive: [18] 111 % of control | [19] 96 % of control | [20] 111 % of control

CNS(=O)(=O)c1ccc2c(c1)[nH]c(=S)n2C
inactive: [16] 95 % of control | [17] 109 % of control | [21] 100 % of control

O=Cc1c2c(c(C=O)c3c1OCO3)OCO2
inactive: [13] 97 % of control | [14] 97 % of control | [15] 90 % of control

O=C(O)c1ccc(C(=O)O)c2c(C(=O)O)ccc(C(=O)O)c12
inactive: dose: 50.0 mg/kg/injection, schedule: Q04DX003 (ip), vehicle: saline with Tween-80 95 % of control | [16] 95 % of control | [17] 90 % of control

COc1cccc2c1CCCC2=O
inactive: [7] 96 % of control | [8] 104 % of control | [10] 104 % of control

COC(=O)C(Cc1ccccc1)NS(=O)(=O)c1ccc(C)cc1 (stereo not drawn)
inactive: dose: 12.5 mg/kg/injection, schedule: Q01DX005 (ip), vehicle: saline with Tween-80 92 % of control | dose: 25.0 mg/kg/injection, schedule: Q01DX005 (ip), vehicle: saline with Tween-80 90 % of control | dose: 50.0 mg/kg/injection, schedule: Q01DX005 (ip), vehicle: saline with Tween-80 87 % of control and 92 % of control | dose: 200.0 mg/kg/injection, schedule: Q01DX005 (ip), vehicle: saline with Tween-80 111 % of control

COc1cccc2c1C(=O)c1c(O)c3c(c(O)c1C2=O)C[C@@](O)(/C(C)=N/NC(=O)c1ccccc1)C[C@@H]3OC1CC(N(C)C)C(O)C(C)O1 (stereo partly drawn)
inactive: dose: 6.25 mg/kg/injection, schedule: Q01DX009 (ip), vehicle: water 96 % of control
active: dose: 0.78 mg/kg/injection, schedule: Q01DX009 (ip), vehicle: water 161 % of control | dose: 1.56 mg/kg/injection, schedule: Q01DX009 (ip), vehicle: water 186 % of control | dose: 3.13 mg/kg/injection, schedule: Q01DX009 (ip), vehicle: water 236 % of control

CC#CCOCC(O)CCl (stereo not drawn)
inactive: [1] 115 % of control | [2] 108 % of control | [3] 95 % of control | [4] 116 % of control | [5] 90 % of control | [6] 112 % of control

OC(Cc1cnc2ccccc2c1)(c1ccccc1)c1ccccc1
inactive: dose: 25.0 mg/kg/injection, schedule: Q04DX002 (ip), vehicle: saline with Tween-80 98 % of control and 103 % of control | dose: 50.0 mg/kg/injection, schedule: Q04DX002 (ip), vehicle: saline with Tween-80 99 % of control and 117 % of control | dose: 100.0 mg/kg/injection, schedule: Q04DX002 (ip), vehicle: saline with Tween-80 98 % of control and 103 % of control | dose: 200.0 mg/kg/injection, schedule: Q04DX002 (ip), vehicle: saline with Tween-80 94 % of control and 99 % of control and 100 % of control | dose: 400.0 mg/kg/injection, schedule: Q04DX002 (ip), vehicle: saline with Tween-80 98 % of control

CC(=O)OCC(CCn1ccc(=O)[nH]c1=O)COC(C)=O
inactive: [22] 90 % of control | [16] 98 % of control | [23] 100 % of control | [17] 98 % of control | dose: 400.0 mg/kg/injection, schedule: Q01DX009 (ip), vehicle: saline with Tween-80 90 % of control | [21] 100 % of control

ClC1=C(Cl)C(Cl)(C2(Cl)C(Cl)=C(Cl)C(Cl)=C2Cl)C(Cl)=C1Cl
inactive: dose: 100.0 mg/kg/injection, schedule: Q01DX009 (ip), vehicle: gum acacia 123 % of control | [18] 108 % of control | [19] 116 % of control | [20] 104 % of control

C1=CC=CN(c2ccccc2)C=C1
inactive: [7] 90 % of control | [8] 105 % of control | [9] 95 % of control | [10] 105 % of control | [11] 91 % of control | dose: 400.0 mg/kg/injection, schedule: Q04DX003 (ip), vehicle: Klucel (hydroxypropylcellulose) (HPC) 100 % of control

CCCCOCN(COCCCC)c1cccc([N+](=O)[O-])c1
inactive: [12] 102 % of control | [22] 100 % of control | [23] 111 % of control

c1ccc(CCN2CCC3(CC2)COCc2ccccc23)cc1
inactive: dose: 25.0 mg/kg/injection, schedule: Q01DX001 (ip), vehicle: saline with Tween-80 104 % of control | dose: 50.0 mg/kg/injection, schedule: Q01DX001 (ip), vehicle: saline with Tween-80 90 % of control
